Test results taken from patent US6642274B1, “Methods and compositions for preventing and treating prostate disorders” (priority 1999, dated 2003).

Legend:
[1] = in vivo
Text: (§1) Szarka reviews the strategy of chemoprevention as a possible method of blocking the development of cancers in humans (C F Szarka et al “Chemoprevention of cancer” Curr Probl Cancer 1994 January-February; 18(1):6-79).

[2] = test system: cancer cell cultures; experiment: Cytostatic or cytotoxic effects on cancer cell cultures; assay type: cell-based; conditions: after hydrolysis of alpha-tocopherol succinate into alpha-tocopherol
Text: as §1

[3] = test system: cancer cell cultures; conditions: cited from earlier work
[4] = rapid hydrolysis by serum and tissue esterases into alpha-tocopherol; cited from earlier work
[5] = test system: BPH; conditions: cited from earlier work
[6] = test system: 5alpha-reductase; conditions: after daily dosing with 5 milligrams; cited from earlier work

| SMILES | factor by which minimal target tissue concentration exceeds the maximum levels possible in oral administration [1] | reduction in potency relative to alpha-tocopherol succinate [2] [fold] | concentration necessary to demonstrate cytostatic or cytotoxic effects [3] | levels available systemically after oral administration [4] | side effects in men ([5]; oral administration) | increase in peak urinary flow rates ([5]; two large clinical studies, finasteride treatment) [mls/second] | reduction in serum dihydrotestosterone levels [6] [%] |
| --- | --- | --- | --- | --- | --- | --- | --- |
| Cc1c(C)c2c(c(C)c1O)CC[C@@](C)(CCC[C@H](C)CCC[C@H](C)CCCC(C)C)O2 [alpha-tocopherol] | 7-10 fold | 50 | 0.5 millimolar |  |  |  |  |
| Cc1c(C)c2c(c(C)c1OC(=O)CCC(=O)O)CC[C@@](C)(CCC[C@H](C)CCC[C@H](C)CCCC(C)C)O2 [alpha-tocopherol succinate] |  |  | 10 µM | undetectable levels |  |  |  |
| O=C1O[C@H]([C@@H](O)CO)C(O)=C1O [ascorbic acid] | 10-20 fold |  | 1-2 millimolar |  |  |  |  |
| CC(C)(C)NC(=O)[C@H]1CC[C@H]2[C@@H]3CC[C@H]4NC(=O)C=C[C@]4(C)[C@H]3CC[C@]12C [finasteride] |  |  |  |  | erectile dysfunction, decreased volume of ejaculate and loss of libido | ~1.6 | 70 |
